{"source": "patent US8110596B2", "about": "“Triprenyl phenol compound, process for production of triprenyl phenol compound, and thrombolysis enhancer” (Tokyo University of Agriculture and Technology TLO Co., Ltd., priority 2006, dated 2012)", "key": {"[1]": {"molecular_target": "T1, plasminogen (Homo sapiens, UniProt P00747)", "T1 sequence (P00747 20-810 limits assumed, species assumed)": "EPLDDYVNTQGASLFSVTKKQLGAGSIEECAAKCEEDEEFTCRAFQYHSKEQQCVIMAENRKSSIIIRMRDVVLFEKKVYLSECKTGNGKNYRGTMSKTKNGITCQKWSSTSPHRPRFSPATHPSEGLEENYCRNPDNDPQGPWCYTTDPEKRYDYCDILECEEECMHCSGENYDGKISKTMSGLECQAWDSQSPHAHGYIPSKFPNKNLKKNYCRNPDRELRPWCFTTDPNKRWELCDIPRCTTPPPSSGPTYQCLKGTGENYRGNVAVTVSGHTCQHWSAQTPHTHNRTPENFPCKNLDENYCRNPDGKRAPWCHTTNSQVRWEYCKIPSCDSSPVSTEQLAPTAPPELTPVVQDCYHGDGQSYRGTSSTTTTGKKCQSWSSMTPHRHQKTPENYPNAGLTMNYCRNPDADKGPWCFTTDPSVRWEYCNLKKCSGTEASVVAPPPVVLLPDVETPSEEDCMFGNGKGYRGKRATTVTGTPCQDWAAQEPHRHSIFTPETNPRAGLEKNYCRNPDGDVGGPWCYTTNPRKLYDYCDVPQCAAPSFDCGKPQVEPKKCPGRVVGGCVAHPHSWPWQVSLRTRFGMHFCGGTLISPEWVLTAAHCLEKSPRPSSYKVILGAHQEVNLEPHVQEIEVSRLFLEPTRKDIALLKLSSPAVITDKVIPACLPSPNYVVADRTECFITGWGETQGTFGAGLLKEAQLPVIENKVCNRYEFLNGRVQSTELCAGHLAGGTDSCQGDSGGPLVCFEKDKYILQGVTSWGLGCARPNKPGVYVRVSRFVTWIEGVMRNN", "experiment": "Measurement of activity of plasminogen fragment production (Example 5)", "format": "biochemical", "settings": "50 μM, 100 μM and 200 μM; 60 minutes at 37° C., SDS polyacrylamide gel electrophoresis", "procedure": "(§1) The fibrinolysis enhancing activity of SMTP-0 (50 μM, 100 μM and 200 μM) obtained in Example 2 was evaluated as follows, as the activity for promoting the plasminogen activation by urokinase catalysis.\n(§2) A 30 mM solution of SMTP (DMSO solution) was diluted with TBS/T (50 mM Tris-HCl, 100 mM NaCl and 0.01% Tween80, pH 7.4) to prepare a 1.5 mM solution (in 5% DMSO·TBS/T). This solution was diluted with 5% DMSO in TBS/T to prepare SMTP solutions at the concentrations mentioned above.\n(1) Measurement of Activity of Plasminogen Fragment Production\nAn SMTP solution (60 μl) was mixed with 240 μl of a reaction liquid at a 1.25-fold concentration (not containing VLK-pNA (Val-Leu-Lys-p-nitroanilide)), and the mixture was allowed to react for 60 minutes at 37° C. Then, 75 μl of 50% trichloroacetic acid (TCA) was added to terminate the reaction, and the mixture was left to stand in ice for 60 minutes. TCA-insoluble materials were precipitated by centrifugation, and the precipitate was washed two times with acetone. The obtained precipitate was dried, and then dissolved with 11 μl of added SDS sample buffer (0.125 M Tris-Cl, pH 6.8, 4% SDS, 20% glycerol and 0.02% bromophenol blue). 10 μl of the solution was used to perform SDS polyacrylamide gel electrophoresis (10% gel)."}, "[2]": {"molecular_target": "T1, plasminogen", "experiment": "Measurement of plasminogen activation by urokinase catalysis, VLK-pNA hydrolysis (Example 5)", "format": "biochemical", "settings": "50 μM, 100 μM and 200 μM, 37° C., 60 minutes", "procedure": "as §1, §2\n(2) Measurement of Plasminogen Activation\n10 μl of an SMTP solution (10 μl) was mixed with 40 μl of a reaction liquid at a 1.25-fold concentration (0.0625 μM of plasminogen, 62.5 U/ml of urokinase, and 0.125 mM of VLK-pNA) in a 96-well microplate, and measurement was made by immediately monitoring the absorption of the hydrolysis of VLK-pNA at 405 nm over time with a microplate reader. The measurement was performed at 37° C. for 60 minutes at an interval of 2 minutes."}}}
{"smiles": "CC(C)=CCC/C(C)=C/CC[C@]1(C)Oc2c(c(O)cc3c2CNC3=O)C[C@@H]1O", "note": "[SMTP-0]", "values": [{"measurement": "action on the generation of plasminogen fragments having the angiogenesis inhibitory activity", "setting": "[1]", "result": "did not exhibit any action"}, {"measurement": "action of enhancing the plasminogen activation", "setting": "[2]", "result": "did not indicate any action"}]}
